ChEMBL document CHEMBL3351363 (J Med Chem, 2014)

Columns and labels:
[1] = target: Muscarinic acetylcholine receptor M3 (Homo sapiens, UniProt P20309); assay: Displacement of [3H]NMS from human M3 receptor expressed in CHO cells by microplate scintillation counting based radioligand binding assay; type: cell-based
[2] = target: T1, Muscarinic acetylcholine receptor M1 (Homo sapiens, UniProt P11229); assay: Displacement of [3H]NMS from human M1 receptor expressed in CHO cells by microplate scintillation counting based radioligand binding assay; type: cell-based
T1 sequence (P11229 whole entry): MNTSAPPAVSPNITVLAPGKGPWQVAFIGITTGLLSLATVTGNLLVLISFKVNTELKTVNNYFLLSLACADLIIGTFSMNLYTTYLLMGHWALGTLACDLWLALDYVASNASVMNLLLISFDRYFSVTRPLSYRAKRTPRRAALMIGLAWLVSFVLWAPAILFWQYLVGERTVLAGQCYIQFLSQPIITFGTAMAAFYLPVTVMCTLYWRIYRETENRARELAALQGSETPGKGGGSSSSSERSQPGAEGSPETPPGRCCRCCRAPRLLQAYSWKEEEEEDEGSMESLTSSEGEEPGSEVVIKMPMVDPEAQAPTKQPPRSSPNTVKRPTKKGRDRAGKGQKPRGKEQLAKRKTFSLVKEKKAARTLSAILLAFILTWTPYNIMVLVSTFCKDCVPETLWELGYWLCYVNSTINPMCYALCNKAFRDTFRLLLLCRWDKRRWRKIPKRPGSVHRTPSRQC

[3] = target: T2, Muscarinic acetylcholine receptor M4 (Homo sapiens, UniProt P08173); assay: Displacement of [3H]NMS from human M4 receptor expressed in CHO cells by microplate scintillation counting based radioligand binding assay; type: cell-based
T2 sequence (P08173 whole entry): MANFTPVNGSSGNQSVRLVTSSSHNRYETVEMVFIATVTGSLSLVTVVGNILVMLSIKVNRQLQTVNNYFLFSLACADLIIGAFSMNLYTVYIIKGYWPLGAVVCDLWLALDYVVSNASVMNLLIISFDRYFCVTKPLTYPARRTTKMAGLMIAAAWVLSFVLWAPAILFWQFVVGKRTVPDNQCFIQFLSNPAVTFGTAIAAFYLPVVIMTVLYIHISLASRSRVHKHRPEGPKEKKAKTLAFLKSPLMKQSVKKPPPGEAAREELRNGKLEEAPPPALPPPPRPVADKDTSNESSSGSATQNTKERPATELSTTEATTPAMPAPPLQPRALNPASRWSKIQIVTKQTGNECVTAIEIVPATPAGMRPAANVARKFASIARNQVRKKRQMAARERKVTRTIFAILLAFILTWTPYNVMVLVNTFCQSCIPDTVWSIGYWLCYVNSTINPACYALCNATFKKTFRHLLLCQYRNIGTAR

[4] = target: T3, Muscarinic acetylcholine receptor M5 (Homo sapiens, UniProt P08912); assay: Displacement of [3H]NMS from human M5 receptor expressed in CHO cells by microplate scintillation counting based radioligand binding assay; type: cell-based
T3 sequence (P08912 whole entry): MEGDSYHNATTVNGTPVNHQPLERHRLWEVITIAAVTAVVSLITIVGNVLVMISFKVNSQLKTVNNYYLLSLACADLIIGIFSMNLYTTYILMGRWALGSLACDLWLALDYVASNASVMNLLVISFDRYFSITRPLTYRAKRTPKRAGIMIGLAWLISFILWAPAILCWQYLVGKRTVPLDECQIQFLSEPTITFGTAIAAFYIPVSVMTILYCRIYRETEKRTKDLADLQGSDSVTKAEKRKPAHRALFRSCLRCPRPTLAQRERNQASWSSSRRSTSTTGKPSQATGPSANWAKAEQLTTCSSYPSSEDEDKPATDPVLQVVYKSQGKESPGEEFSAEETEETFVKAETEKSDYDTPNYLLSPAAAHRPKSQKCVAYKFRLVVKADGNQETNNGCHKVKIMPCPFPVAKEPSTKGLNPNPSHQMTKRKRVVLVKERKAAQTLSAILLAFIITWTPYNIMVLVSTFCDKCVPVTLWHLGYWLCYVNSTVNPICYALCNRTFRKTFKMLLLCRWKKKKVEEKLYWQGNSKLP

[5] = target: T4, Muscarinic acetylcholine receptor M2 (Homo sapiens, UniProt P08172); assay: Displacement of [3H]NMS from human M2 receptor expressed in CHO cells by microplate scintillation counting based radioligand binding assay; type: cell-based
T4 sequence (P08172 whole entry): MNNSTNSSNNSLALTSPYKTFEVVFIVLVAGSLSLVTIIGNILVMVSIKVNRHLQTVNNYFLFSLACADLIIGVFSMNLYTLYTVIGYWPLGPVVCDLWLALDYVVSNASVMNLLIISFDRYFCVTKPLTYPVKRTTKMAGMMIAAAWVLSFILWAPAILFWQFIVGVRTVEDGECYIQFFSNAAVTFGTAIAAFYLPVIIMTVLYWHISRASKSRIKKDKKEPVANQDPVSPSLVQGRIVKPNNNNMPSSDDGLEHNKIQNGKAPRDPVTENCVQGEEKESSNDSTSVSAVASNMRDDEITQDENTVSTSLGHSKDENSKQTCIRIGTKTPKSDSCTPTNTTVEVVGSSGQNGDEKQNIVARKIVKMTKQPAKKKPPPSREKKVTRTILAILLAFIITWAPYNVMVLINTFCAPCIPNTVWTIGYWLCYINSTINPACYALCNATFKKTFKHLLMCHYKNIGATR

[6] = target: T5, Muscarinic acetylcholine receptor M1 (Homo sapiens) (UniProt P11229); assay: Agonist activity at human M1 receptor expressed in HEK293T cells by BRET based Gq protein engagement assay relative carbachol; type: cell-based; conditions: HEK-293T
T5 sequence (whole entry): T1 sequence (P11229 whole entry)

[7] = target: T1, Muscarinic acetylcholine receptor M1; type: cell-based, HEK-293T
[8] = target: T6, Muscarinic acetylcholine receptor M4 (Homo sapiens) (UniProt P08173); assay: Antagonist activity at human M4 receptor expressed in HEK293T cells assessed as inhibition of carbachol-induced response by BRET based Gq protein engagement assay relative to untreated control; type: cell-based; conditions: HEK-293T
T6 sequence (whole entry): T2 sequence (P08173 whole entry)

[9] = target: T1, Muscarinic acetylcholine receptor M1; assay: Agonist activity at human M1 receptor expressed in HEK293T cells by BRET based Gq protein activation assay; type: cell-based, HEK-293T
[10] = target: T2, Muscarinic acetylcholine receptor M4; assay: Antagonist activity at human M4 receptor expressed in HEK293T cells assessed as inhibition of carbachol-induced response by beta-arrestin engagement assay; type: cell-based, HEK-293T
[11] = target: T5, Muscarinic acetylcholine receptor M1 (Homo sapiens); assay: Agonist activity at human M1 receptor expressed in HEK293T cells by BRET based Gq protein activation assay relative to carbachol; type: cell-based; conditions: HEK-293T
[12] = target: T6, Muscarinic acetylcholine receptor M4 (Homo sapiens); assay: Agonist activity at human M4 receptor expressed in HEK293T cells by BRET based Gi protein activation assay relative to carbachol; conditions: HEK-293T
[13] = target: T1, Muscarinic acetylcholine receptor M1; assay: Agonist activity at human M1 receptor expressed in HEK293T cells by BRET based beta-arrestin engagement assay
[14] = target: T2, Muscarinic acetylcholine receptor M4; assay: Antagonist activity at human M4 receptor expressed in HEK293T cells assessed as inhibition of carbachol-induced response by BRET based Gq protein engagement assay; type: cell-based, HEK-293T
[15] = target: T1, Muscarinic acetylcholine receptor M1
[16] = target: T2, Muscarinic acetylcholine receptor M4
[17] = target: T6, Muscarinic acetylcholine receptor M4 (Homo sapiens); assay: Agonist activity at human M4 receptor expressed in HEK293T cells by BRET based Gq protein engagement assay relative to carbachol; type: cell-based; conditions: HEK-293T
[18] = target: T6, Muscarinic acetylcholine receptor M4 (Homo sapiens); assay: Antagonist activity at human M4 receptor expressed in HEK293T cells assessed as inhibition of carbachol-induced response by BRET based Gi protein activation assay relative to untreated control; conditions: HEK-293T
[19] = target: T1, Muscarinic acetylcholine receptor M1; type: cell-based, HEK-293T; remark: listed apart in the source
[20] = target: T5, Muscarinic acetylcholine receptor M1 (Homo sapiens); assay: Agonist activity at human M1 receptor expressed in HEK293T cells by BRET based beta-arrestin engagement assay relative to carbachol; type: cell-based; conditions: HEK-293T
[21] = target: T6, Muscarinic acetylcholine receptor M4 (Homo sapiens); assay: Antagonist activity at human M4 receptor expressed in HEK293T cells assessed as inhibition of carbachol-induced response by beta-arrestin engagement assay relative to untreated control; type: cell-based; conditions: HEK-293T
[22] = target: T1, Muscarinic acetylcholine receptor M1; assay: Positive modulatory activity at human M1 receptor expressed in HEK293T cells assessed as effect on carbachol-induced response by BRET based Gq protein activation assay; type: cell-based, HEK-293T
[23] = target: T5, Muscarinic acetylcholine receptor M1 (Homo sapiens); assay: Positive modulatory activity at human M1 receptor expressed in HEK293T cells assessed as effect on carbachol-induced response by BRET based Gq protein engagement assay relative to untreated control; type: cell-based; conditions: HEK-293T
[24] = target: T5, Muscarinic acetylcholine receptor M1 (Homo sapiens); assay: Positive modulatory activity at human M1 receptor expressed in HEK293T cells assessed as effect on carbachol-induced response by BRET based Gq protein activation assay relative to untreated control; type: cell-based; conditions: HEK-293T
[25] = target: T1, Muscarinic acetylcholine receptor M1; assay: Agonist activity at human M1 receptor expressed in HEK293T cells by BRET based Gq protein engagement assay
[26] = target: T1, Muscarinic acetylcholine receptor M1; assay: Positive modulatory activity at human M1 receptor expressed in HEK293T cells assessed as effect on carbachol-induced response by BRET based Gq protein engagement assay; type: cell-based, HEK-293T
[27] = target: T2, Muscarinic acetylcholine receptor M4; assay: Agonist activity at human M4 receptor expressed in HEK293T cells by BRET based Gq protein activation assay

Chain of Muscarinic acetylcholine receptor M3 (P20309 whole entry): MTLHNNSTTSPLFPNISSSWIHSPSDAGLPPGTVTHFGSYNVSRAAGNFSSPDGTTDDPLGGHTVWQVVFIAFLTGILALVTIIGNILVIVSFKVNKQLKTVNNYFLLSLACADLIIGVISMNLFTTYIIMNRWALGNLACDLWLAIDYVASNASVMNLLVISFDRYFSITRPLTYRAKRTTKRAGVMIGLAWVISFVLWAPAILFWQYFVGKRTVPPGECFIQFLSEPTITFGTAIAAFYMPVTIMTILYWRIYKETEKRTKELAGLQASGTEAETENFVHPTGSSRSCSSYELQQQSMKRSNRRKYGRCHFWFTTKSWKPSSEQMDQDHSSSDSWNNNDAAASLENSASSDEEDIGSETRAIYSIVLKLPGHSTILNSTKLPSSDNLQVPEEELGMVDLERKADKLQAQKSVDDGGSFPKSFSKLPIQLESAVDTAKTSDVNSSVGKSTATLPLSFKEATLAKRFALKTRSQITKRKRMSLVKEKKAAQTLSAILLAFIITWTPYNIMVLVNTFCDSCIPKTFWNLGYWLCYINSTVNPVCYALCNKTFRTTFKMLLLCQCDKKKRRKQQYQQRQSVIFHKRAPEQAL

SMILES	Ki [1] [nM]	Ki [2] [nM]	Ki [3] [nM]	Ki [4] [nM]	Ki [5] [nM]	Imax [8] [%]	Imax [18] [%]	Imax [21] [%]	further results
CN1CCC=C(c2nsnc2OCCCCCCCCCCCC2CCN(CCCN3C(=O)CCc4ccccc43)CC2)C1	10	11	6.61	8.71	89.1				
O=C1CCc2ccccc2N1CCCN1CCC(CCCCCCCCCC2CCN(CCCN3C(=O)CCc4ccccc43)CC2)CC1	57.5	29.5	32.4	49	79.4				
O=C1CCc2ccccc2N1CCCN1CCC(CCCCCCCCCO)CC1	200	282	155	851	214	92	< 100	90	Emax [6]: < 0%; IC50 [7]: 10000 nM; EC50 [9]: 295 nM; IC50 [10]: 813 nM; Emax [11]: 22%; Emax [12]: < 0%; EC50 [13]: 245000 nM; IC50 [14]: 589 nM; IC50 [15]: 490 nM; IC50 [16]: 3630 nM; Emax [17]: < 0%; IC50 [19]: 19500 nM; Emax [20]: 50%
CN1CCN(CC(=O)N2c3ccccc3C(=O)Nc3cccnc32)CC1						< 100	< 100	67	
O=C1CCc2ccccc2N1CCCN1CCC(CCCCCCCCCCCO)CC1	575	123	112	347	417				
CN1CCC=C(c2nsnc2OCCCC2CCN(CCCN3C(=O)CCc4ccccc43)CC2)C1	93.3	77.6	26.3	102	66.1				
CN1[C@@H]2C[C@@H](OC(=O)[C@H](CO)c3ccccc3)C[C@H]1[C@@H]1O[C@@H]12						< 100	< 100	77	
O=C1CCc2ccccc2N1CCCN1CCC(CCCO)CC1	11700	2510	589	14500	3240				
CN1CCC=C(c2nsnc2OCCCCCCCCCOc2nsnc2C2=CCCN(C)C2)C1	2.88	1.66	0.776	3.98	3.16				
O=C1CCc2ccccc2N1CCCN1CCC(CCCCCCCO)CC1	631	355	389	3090	209	< 100	54	93	Emax [6]: 76%; EC50 [22]: 85.1 nM; Emax [23]: 21%; Emax [24]: 44%; EC50 [9]: 100 nM; IC50 [10]: 794 nM; Emax [11]: 73%; Emax [12]: < 0%; IC50 [14]: 1480 nM; IC50 [15]: 1150 nM; EC50 [25]: 229 nM; IC50 [16]: 589 nM; Emax [17]: < 0%; EC50 [26]: 69.2 nM
CN1CCC=C(c2nsnc2OCCCCCCCCCCCCCC2CCN(CCCN3C(=O)CCc4ccccc43)CC2)C1	44.7	44.7	14.5	30.9	85.1				
O=C1CCc2ccccc2N1CCCN1CCC(CCCCCCCCCCCCCO)CC1	339	186	95.5	339	479				
CN1CCC=C(c2nsnc2OCCCCCCCCCC2CCN(CCCN3C(=O)CCc4ccccc43)CC2)C1	1.1	1.02	1.07	2.95	1.7	63		< 100	Emax [6]: < 0%; EC50 [27]: 66100 nM; IC50 [7]: 14100 nM; EC50 [9]: 871 nM; IC50 [10]: 95500 nM; Emax [11]: 31%; Emax [12]: > 100%; EC50 [13]: 61700 nM; IC50 [14]: 2450 nM; Emax [17]: < 0%; IC50 [19]: 148000 nM; Emax [20]: 81%
O=C1CCc2ccccc2N1CCCN1CCC(CCCCCO)CC1	1910	468	447	4570	603	72	38	< 100	Emax [6]: 58%; EC50 [27]: 2000 nM; IC50 [7]: 26300 nM; EC50 [9]: 204 nM; IC50 [10]: 1620 nM; Emax [11]: 53%; Emax [12]: 20%; IC50 [14]: 12300 nM; IC50 [15]: 28.8 nM; EC50 [25]: 112 nM; IC50 [16]: 3310 nM; IC50 [19]: 10000 nM
